Test results from BigSolDB 2.1.

CC[C@H](C)[C@H]1O[C@]2(C=C[C@@H]1C)C[C@@H]1C[C@@H](C/C=C(\C)[C@@H](O[C@H]3C[C@H](OC)[C@@H](O[C@H]4C[C@H](OC)[C@@H](O)[C@H](C)O4)[C@H](C)O3)[C@@H](C)/C=C/C=C3\CO[C@@H]4[C@H](O)C(C)=C[C@@H](C(=O)O1)[C@]34O)O2
solubility (mole fraction)
Conditions	283.15 K	288.15 K	293.15 K	298.15 K	303.15 K	308.15 K	313.15 K
in acetone	0.00916	0.0104	0.0119	0.0134	0.0151	0.0175	0.0194
in isopropanol	0.00481	0.00589	0.0071	0.00804	0.0096	0.0113	0.0137
